The values below are quoted from earlier work in patent US8481518B2, “Quaternary antimuscarinic compounds for the treatment of bladder diseases” (University of Rochester, priority 2003, dated 2013).

Structures can show the parent of a compound that is named as a salt.

For data set [1] the following is noted: generally 25 mg twice daily, adults with urge incontinence.
Data set [2] deals with all subtypes of human muscarinic receptors. The note with it: in vitro.
For data set [3] the following is noted: oral, 5 mg/kg four times/day.
For data set [4] the following is noted: intravesical instillation two to three times daily.

Turning to `COC(=O)C1=CC[C@@H]2CC[C@H]1N2C` [AEME, Anhydroecgonine methyl ester], in the data set on muscarinic receptors (guinea pig tracheal rings and detrusor muscle in vitro), the cholinergic agonist activity result is recorded as “lacked cholinergic agonist activity”. Further, the muscarinic antagonism result with muscarinic receptors (in vitro) was “potent non-competitive muscarinic antagonist”. As for `CC(CC(c1ccccc1)c1ccccc1)NC(C)(C)C` (stereo not drawn) [terodiline], the “effect on micturition frequency and incontinence episodes” value in data set [1] was “reduced micturition frequency and incontinence episodes”. With `C[N+]1(C)[C@@H]2C[C@@H](OC(=O)C(O)(c3cccs3)c3cccs3)C[C@H]1[C@@H]1O[C@@H]12` [tiotropium bromide, 6β,7β,Epoxy-3α-[2-hydroxy-2,2-di(2-thienyl)acetoxy]-8,8-dimethyl-1αH,5αH-tropanium bromide], the “antagonism at all subtypes of human muscarinic receptors” value in data set [2] is recorded as 10-11 M. With `CCN(CC)CC#CCOC(=O)C(O)(c1ccccc1)C1CCCCC1` (stereo not drawn) [oxybutynin, (4-diethylamino)2-butynyl-cc-cyclohexyl-a-hydroxybenzeneacetate HCl], the “severe mouth dryness, subjects affected” value in data set [3] was 84%. The “patients dropping out due to inability to tolerate catheterization or difficulty retaining drug solution” value in data set [4] is 21%.
